Experimental data: ChEMBL document CHEMBL1148828, “Deoxycholic acid-derived tetraoxane antimalarials and antiproliferatives(1)” (J Med Chem, 2007)

How the values were obtained:
Plasmodium falciparum [1] = assay: Antimalarial activity against Plasmodium falciparum W2; assay type: functional, organism-based
Plasmodium falciparum [2] = assay: Antimalarial activity against Plasmodium falciparum D6; assay type: functional, organism-based
Plasmodium falciparum [3] = assay: Antimalarial activity against Plasmodium falciparum TM91C235; assay type: functional, organism-based
NCI = assay: Growth inhibition of human NCI DTP 60 cells; assay type: functional
HOP-92 = assay: Antiproliferative activity against human HOP92 cells after 48 hrs; assay type: functional; settings: Homo sapiens, HOP-92, 48 h
786-0 = assay: Antiproliferative activity against human 786-0 cells after 48 hrs; assay type: functional; settings: Homo sapiens, 786-0, 48 h
HL-60 = assay: Antiproliferative activity against human HL60 cells after 48 hrs; assay type: functional
LOX IMVI = assay: Antiproliferative activity against human LOX IMVI cells after 48 hrs; assay type: functional; settings: Homo sapiens, LOX IMVI, 48 h
CCRF-CEM = assay: Antiproliferative activity against human CCRF-CEM cells after 48 hrs; assay type: functional
UO-31 = assay: Antiproliferative activity against human UO31 cells after 48 hrs; assay type: functional; settings: Homo sapiens, UO-31, 48 h
[4] = Plasmodium falciparum, TM91C235
[5] = read-out: LC50 (the source's name)

Row | SMILES | IC50 (Plasmodium falciparum [1]) [nM] | IC90 (Plasmodium falciparum [1]; Plasmodium falciparum, W2) [nM] | IC50 (Plasmodium falciparum [2]) [nM] | IC90 (Plasmodium falciparum [2]) [nM] | IC50 (Plasmodium falciparum [3]) [nM] | IC90 (Plasmodium falciparum [3]) [nM] | IC50 (Plasmodium falciparum [1]; Plasmodium falciparum, W2) [nM] | IC50 (Plasmodium falciparum [2]; Plasmodium falciparum, D6) [nM] | IC90 (Plasmodium falciparum [2]; Plasmodium falciparum, D6) [nM] | IC50 (Plasmodium falciparum [3]; [4]) [nM] | IC90 (Plasmodium falciparum [3]; [4]) [nM] | other results
1 | CC(=O)O[C@H]1C[C@H]2[C@@H](CC[C@@H]3CC4(CC[C@@]32C)OOC2(CCC(C)CC2)OO4)[C@@H]2CC[C@H]([C@H](C)CCC(=O)Nc3ccccc3)[C@@]12C (stereo in doubt; 18) | 23.1 | 38.9 | 23.3 | 33.7 | 32.9 | 42.7 | – | – | – | – | – | –
2 | CC(=O)O[C@H]1C[C@H]2[C@@H](CC[C@@H]3CC4(CC[C@@]32C)OOC2(CCCCC2)OO4)[C@@H]2CC[C@H]([C@H](C)CCC(=O)N3CCCCC3)[C@@]12C | – | 78.6 | – | – | – | – | 55.5 | 106 | 131 | 84.7 | 125 | –
3 | CCCNC(=O)CC[C@@H](C)[C@H]1CC[C@H]2[C@@H]3CC[C@@H]4CC5(CC[C@]4(C)[C@H]3C[C@H](OC(C)=O)[C@]12C)OOC1(CCC(C)CC1)OO5 (stereo in doubt; 14) | 10.1 | 30.5 | 9.81 | – | 12.3 | 23.4 | – | – | 20.2 | – | – | –
4 | CC(=O)O[C@H]1C[C@H]2[C@@H](CC[C@@H]3CC4(CC[C@@]32C)OOC2(CCCCC2)OO4)[C@@H]2CC[C@H]([C@H](C)CCC(N)=O)[C@@]12C | – | 35.6 | – | – | – | – | 19.1 | 32.7 | 50.4 | 40.9 | 76.7 | –
5 | COC(=O)CC[C@@H](C)[C@H]1CC[C@H]2[C@@H]3CC[C@@H]4CC5(CC[C@]4(C)[C@H]3C[C@H](OC(C)=O)[C@]12C)OOC1(CCC(C)CC1)OO5 (stereo in doubt; 3b) | – | 49.3 | – | 26 | – | – | 34.2 | 39.2 | – | 42.4 | 74.9 | –
6 | CC(=O)O[C@H]1C[C@H]2[C@@H](CC[C@@H]3CC4(CC[C@@]32C)OOC2(CCCCC2)OO4)[C@@H]2CC[C@H]([C@H](C)CCC(=O)Nc3ccccc3)[C@@]12C | – | 195 | – | – | – | – | 81.6 | 133 | 195 | – | – | –
7 | CC(=O)O[C@H]1C[C@H]2[C@@H](CC[C@@H]3CC4(CC[C@@]32C)OOC2(CCCCC2)OO4)[C@@H]2CC[C@H]([C@H](C)CCC(=O)NN)[C@@]12C | – | – | – | – | – | – | 347 | 347 | – | 347 | – | –
8 | CC(=O)O[C@H]1C[C@H]2[C@@H](CC[C@@H]3CC4(CC[C@@]32C)OOC2(CCC(C)CC2)OO4)[C@@H]2CC[C@H]([C@H](C)CCC(=O)O)[C@@]12C (stereo in doubt; 4b) | 12.1 | 84.8 | – | – | – | – | – | 11.6 | 17.1 | 19.9 | 47 | –
9 | CC(=O)O[C@H]1C[C@H]2[C@@H](CC[C@@H]3CC4(CC[C@@]32C)OOC2(CCC(C)CC2)OO4)[C@@H]2CC[C@H]([C@H](C)CCC(=O)Nc3ccccc3)[C@@]12C (stereo in doubt; 19) | 50.8 | – | 50 | 77.5 | 66.8 | 109 | – | – | – | – | – | IC90 (Plasmodium falciparum [1]): 76.9 nM; GI50 (NCI; Homo sapiens, NCI): < 5 nM; GI50 (HOP-92): < 5 nM; LC50 (concentration killing 50% of cells) (HOP-92): 15200 nM; TGI (HOP-92): 130 nM
10 | COC(=O)CC[C@@H](C)[C@H]1CC[C@H]2[C@@H]3CC[C@@H]4CC5(CC[C@]4(C)[C@H]3C[C@H](OC(C)=O)[C@]12C)OOC1(CCC(C)CC1)OO5 (stereo in doubt; 3c) | 38.3 | – | 38 | 62.9 | 50.8 | 77.3 | – | – | – | – | – | IC90 (Plasmodium falciparum [1]): 80.3 nM
11 | CC1CCC2(CC1)OOC1(CC[C@@]3(C)[C@H](CC[C@@H]4[C@@H]3C[C@H](O)[C@]3(C)[C@@H]([C@H](C)CCC(=O)NCCN(C)C)CC[C@@H]43)C1)OO2 (stereo in doubt; 16a) | – | – | – | – | – | – | – | – | – | – | – | GI50 (NCI): 15 nM; GI50 (786-0): 626 nM; TGI (786-0): 2040 nM; CC50 (786-0; [5]): 5430 nM; TGI (HL-60): 1010 nM; GI50 (HL-60; Homo sapiens, HL-60, 48 h): 377 nM; CC50 (HL-60; [5]): 6090 nM; GI50 (LOX IMVI): 184 nM; LC50 (concentration killing 50% of cells) (LOX IMVI): 774 nM; TGI (LOX IMVI): 378 nM; GI50 (HOP-92): 228 nM; LC50 (concentration killing 50% of cells) (HOP-92): 973 nM; TGI (HOP-92): 471 nM; LC50 (concentration killing 50% of cells) (CCRF-CEM): > 10000 nM; GI50 (CCRF-CEM; Homo sapiens, CCRF-CEM, 48 h): 257 nM; TGI (CCRF-CEM; Homo sapiens, CCRF-CEM, 48 h): 539 nM; GI50 (UO-31): 206 nM; LC50 (UO-31): 864 nM; TGI (UO-31): 421 nM
12 | CC(=O)O[C@H]1C[C@H]2[C@@H](CC[C@@H]3CC4(CC[C@@]32C)OOC2(CCCCC2)OO4)[C@@H]2CC[C@H]([C@H](C)CCC(=O)O)[C@@]12C | – | 178 | – | – | – | – | 93.9 | 107 | 310 | – | – | –
